Assay results as given in US20220105051A1, “COMPOUNDS FOR INCREASING MHC-I EXPRESSION AND MODULATING HISTONE DEACETYLASE ACTIVITY” (Cava Healthcare Inc., priority 2019, published 2022).
Entries after “also recorded” stand apart in the source; their conditions may differ.

Assays:
HDAC9 = biological target: T1, HDAC9 (Homo sapiens, UniProt Q9UKV0); experiment: Individualized HDAC assay, HDAC9; assay type: biochemical; conditions: purified enzyme, 5 to 0.02 μM
T1 construct: purchased BPS Biosciences
T1 sequence (Q9UKV0 whole entry): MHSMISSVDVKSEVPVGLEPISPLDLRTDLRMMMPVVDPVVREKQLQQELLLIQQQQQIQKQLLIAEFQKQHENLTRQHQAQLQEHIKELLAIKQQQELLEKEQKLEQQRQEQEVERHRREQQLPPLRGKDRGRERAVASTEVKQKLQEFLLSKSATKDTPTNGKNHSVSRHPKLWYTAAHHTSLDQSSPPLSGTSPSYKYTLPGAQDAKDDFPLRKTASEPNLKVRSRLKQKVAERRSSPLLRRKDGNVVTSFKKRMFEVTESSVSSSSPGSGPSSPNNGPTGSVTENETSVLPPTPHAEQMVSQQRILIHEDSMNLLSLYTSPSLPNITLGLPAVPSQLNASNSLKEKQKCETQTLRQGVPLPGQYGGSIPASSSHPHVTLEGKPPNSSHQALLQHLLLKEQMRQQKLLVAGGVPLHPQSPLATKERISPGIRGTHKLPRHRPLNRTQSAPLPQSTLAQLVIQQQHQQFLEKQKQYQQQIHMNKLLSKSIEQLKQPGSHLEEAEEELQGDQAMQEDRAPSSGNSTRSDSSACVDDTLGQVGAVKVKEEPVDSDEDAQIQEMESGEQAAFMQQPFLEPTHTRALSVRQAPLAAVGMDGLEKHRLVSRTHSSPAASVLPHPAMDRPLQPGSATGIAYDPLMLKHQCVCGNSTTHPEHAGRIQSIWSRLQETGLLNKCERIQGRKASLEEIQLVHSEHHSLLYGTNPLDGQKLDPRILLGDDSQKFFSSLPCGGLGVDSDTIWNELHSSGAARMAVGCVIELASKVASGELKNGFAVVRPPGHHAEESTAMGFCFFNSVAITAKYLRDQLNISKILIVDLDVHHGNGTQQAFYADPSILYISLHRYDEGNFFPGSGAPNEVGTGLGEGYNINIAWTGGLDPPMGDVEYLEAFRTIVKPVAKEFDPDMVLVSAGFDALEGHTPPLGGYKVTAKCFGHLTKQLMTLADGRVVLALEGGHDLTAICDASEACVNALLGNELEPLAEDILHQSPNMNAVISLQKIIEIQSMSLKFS
Description: The activity of the curcuphenol analogues was assessed with purified HDAC enzymes from all classes I, II, and IV, as well as a select member of HDAC class III (SIRT1). HDACs 1-9 and SIRT1 were evaluated using HDAC Fluorogenic Assay Kits (BPS Biosciences). All assays were completed in black-sided clear-bottom 96 well plates (PerkinElmer), and all treatments were plated in triplicates. Treatment started at 5 μM and was two-fold diluted to a concentration 0.02 μM. The assays were measured using the Synergy HI hybrid reader (BioTek) and Gen5 software (BioTek), excitation was set to 360 nm and detection was measured at 450 nm with a gain of 100. Alternatively HDAC 10 and 11 (BPS Biosciences) were optimized for HDAC concentration using the HDAC-Glo™ I/II Assay and Screening System (Promega). Following optimization each HDAC was run following the Promega protocol in black-sided clear-bottomed 96 well plates in triplicates with same treatments listed above (PerkinElmer). Luminescence was read 30 minutes after HDAC-Glo™I/II reagent was added using the Synergy HI hybrid reader (BioTek) and Gen5 software (Bio-Tek). […] To calculate percent activity, the average of blank wells was subtracted from all treatment groups. The relative mean of activity of the HDAC being measured was determined and all wells that received treatment were divided this average, to give a percentage of activity.
To evaluate the effect of the compounds on specific HDACs, their activity was assessed with purified HDAC enzymes from all classes I, II, and IV, as well as a select member of HDAC class III (SIRT1). HDACs 1-9 and SIRT1 were evaluated using HDAC Fluorogenic Assay Kits (BPS Biosciences) following the manufacturer's recommendations. Compound treatment started at 5 μM and was two-fold diluted to a concentration 0.02 μM. […] The assays were measured using the Synergy HI hybrid reader (BioTek) and Gen5 software (Bio-Tek). […] To calculate the fold change in HDAC activity, the values from each treated well were divided by the relative mean of activity of the specific HDAC being measured.

[1] = tested on: TAP, MHC class I, and HDACs 8 and 10; experiment: mRNA expression in A9 cells (RT-PCR); assay type: cell-based, murine; conditions: 0.064 μmol
From the text: (§1) Methods primarily used: Fluorescence Activated Cell Sorting (FACS), western blot, RealTime-PCR (RT-PCR), Proteome Profiler Mouse Cytokine Array Kit (Panel A).

A9 cells = experiment: Proteome Profiler Mouse XL cytokine array on A9 cells; assay type: cell-based, murine; conditions: 0.014 mg/ml (0.064 umol) vs DMSO
Description: as §1
Upon addition of 0.014 mg/ml (0.064 umol) of Curcuphenol, there was a change in the cytokine production of A9 cells, relative to that of cells treated with only vehicle DMSO. This treatment was done in 2 mL of DMEM media, at an initial seeding density of 1×10^6 A9 cells, and treatment with Curcuphenol in DMSO vehicle or DMSO vehicle was done 24 hours after seeding A9 cells. A9 cells are murine metastatic epithelial carcinoma cells. Cytokine change was seen using the Proteome Profiler Mouse XL cytokine array (R&D Systems, ARY028).

With `CC(C)=CCCCc1ccc(C)cc1O` [P02-113] the HDAC9 activity (HDAC9) was “no change in activity; also recorded: did not affect the activity; also recorded: unaffected”.
For `COc1ccc(C(C)CCC=C(C)C)c(O)c1` (stereo not shown) [P03-97-1], the HDAC9 activity (HDAC9) was “no change in activity; also recorded: unaffected” and the HDAC9 activity (HDAC9; listed as PO-3-97-1) was “did not affect the activity”.
With `CC(C)=CCC[C@H](C)c1ccc(C)cc1O` [Curcuphenol, curcuphenol] the “mRNA expression of HDAC 8” value [1] was “increased mRNA expression”, the “mRNA expression of HDAC 10” value [1] was “increased mRNA expression” and the “mRNA expression of MHC class I” value [1] was “increased mRNA expression”. The “mRNA expression of TAP” value [1] was “increased mRNA expression”, the Adiponectin/Acrp30 production (A9 cells) was “Decrease” and the Amphiregulin production (A9 cells) was “Decrease”. The Angiopoietin-1 production (A9 cells) was “Decrease”, the Angiopoietin-2 production (A9 cells) was “Increase” and the “Angiopoietin-like 3 production” value (A9 cells) was “Increase”. For the same compound, the CCL2/JE/MCP-1 production (A9 cells) was “Decrease”, the CCL5/RANTES production (A9 cells) was “Decrease” and the CCL6/C10 production (A9 cells) was “Decrease”. The CCL11/Eotaxin production (A9 cells) was “Decrease”, the CCL12/MCP-5 production (A9 cells) was “Increase” and the CCL17/TARC production (A9 cells) was “Decrease”. The CCL19/MIP-3beta production (A9 cells) was “Increase”, the CCL22/MDC production (A9 cells) was “Decrease” and the CD40/TNFRSF5 production (A9 cells) was “Increase”. The CD160 production (A9 cells) was “Decrease”, the CX3CL1/Fractalkine production (A9 cells) was “Increase” and the CXCL9/MIG production (A9 cells) was “Decrease”. For the same compound, the CXCL10/IP-10 production (A9 cells) was “Decrease”, the CXCL11/I-TAC production (A9 cells) was “Decrease” and the CXCL13/BLC/BCA-1 production (A9 cells) was “Increase”. For the same compound, the CXCL16 production (A9 cells) was “Increase”, the Chemerin production (A9 cells) was “Decrease” and the “Coagulation Factor III/Tissue Factor production” value (A9 cells) was “Increase”. The “Cystatin C production” value (A9 cells) was “Increase”, the DGF-BB production (A9 cells) was “Increase” and the E-Selectin/CD62-E production (A9 cells) was “Decrease”. The Endostatin production (A9 cells) was “Decrease”, the FGF-21 production (A9 cells) was “Increase” and the “Flt-3 Ligand production” value (A9 cells) was “Decrease”. For the same compound, the G-CSF production (A9 cells) was “Increase”, the GDF-15 production (A9 cells) was “Increase” and the “Gas 6 production” value (A9 cells) was “Increase”. The IFN-gamma production (A9 cells) was “Increase”, the IGFBP-2 production (A9 cells) was “Decrease” and the IGFBP-3 production (A9 cells) was “Decrease”. The IGFBP-6 production (A9 cells) was “Decrease”, the IL-1alpha/IL-1F1 production (A9 cells) was “Increase” and the IL-1beta/IL-1F2 production (A9 cells) was “Increase”. For the same compound, the IL-1ra/IL-1F3 production (A9 cells) was “Increase”, the IL-6 production (A9 cells) was “Decrease” and the IL-7 production (A9 cells) was “Decrease”. For the same compound, the IL-10 production (A9 cells) was “Decrease”, the IL-11 production (A9 cells) was “Decrease” and the “IL-12 p40 production” value (A9 cells) was “Decrease”. For the same compound, the IL-13 production (A9 cells) was “Increase”, the IL-15 production (A9 cells) was “Increase” and the IL-28A/B production (A9 cells) was “Increase”. For the same compound, the IL-33 production (A9 cells) was “Increase”, the LIX production (A9 cells) was “Increase” and the Leptin production (A9 cells) was “No change”. The M-CSF production (A9 cells) was “Decrease”, the MMP-2 production (A9 cells) was “Decrease” and the MMP-3 production (A9 cells) was “Decrease”. For the same compound, the Myeloperoxidase production (A9 cells) was “Increase”, the “Osteopontin (OPN) production” value (A9 cells) was “Increase” and the P-Selectin/CD62P production (A9 cells) was “Decrease”. The “Pentraxin 2/SAP production” value (A9 cells) was “Decrease”, the “Pentraxin 3/TSG-14 production” value (A9 cells) was “Increase” and the Periostin/OSF-2 production (A9 cells) was “No change”. For the same compound, the Pref-1/DLK-1/FA1 production (A9 cells) was “Decrease”, the Proliferin production (A9 cells) was “Increase” and the “Proprotein Convertase 9/PCSK9 production” value (A9 cells) was “No change”. The “Serpin E1/PAI-1 production” value (A9 cells) was “Increase”, the “Serpin F1/PEDF production” value (A9 cells) was “Increase” and the TIM-1/KIM-1/HAVCR production (A9 cells) was “Increase”. For the same compound, the TNF-alpha production (A9 cells) was “Decrease”, the VCAM-1/CD106 production (A9 cells) was “No change” and the VEGF production (A9 cells) was “Increase”. For the same compound, the WISP-1/CCN4 production (A9 cells) was “Decrease”.
